# Measured values taken from patent US11370775B2, “Substituted benzimidazole derivatives as D-amino acid oxidase (DAAO) inhibitors” (NATIONAL TAIWAN UNIVERSITY, priority 2016, dated 2022).
# Assays:
# porcine kidney DAO = target: T1, porcine kidney DAO (Sus scrofa, UniProt P00371); test: pkDAO enzymatic assay (porcine kidney DAO IC50 assay); type: biochemical; details: D-alanine substrate, pH 8.3, 37° C., without FAD
# T1 construct: purchased Sigma-Aldrich; host or cells: porcine kidney
# Protocol: The DAAO enzymatic activity assay was modified according to the report of Oguri et al (Oguri, S., Screening of d-amino acid oxidase inhibitor by a new multi-assay method. Food chemistry 2007, 100 (2), 616). The DAAO activity was measured by using substrate D-alanine reaction produced hydrogen peroxide (H2O2) to further react with 3-(4-hydroxyphenyl) propionic acid (HPPA). The HPPA were oxidized by H2O2 and peroxidase to become the fluorogenic dimer which was measured to represent the activity of DAAO.
# For porcine kidney DAO IC50 assay, the DAO substrate was prepared in 50 mM D-alanine (dissolved in 0.2 M Tris-HCl buffer, pH 8.3). A 100 μl of D-alanine solution was mixed with 4 μl (in 100% dimethyl sulfoxide, DMSO) of different concentrations of candidate compounds shown in tables below ranging from 48.83 μM, 97.66 μM, 195.31 μM, 390.63 μM, 781.25 μM, 1.56 mM, 3.13 mM, 6.25 mM, 12.50 mM, 25.00 mM, and 50.00 mM, with a final DMSO concentration of 0.167% in each reaction concentration. 10 μl of D-alanine and candidate compound mixture was incubated with 220 μl of Reaction Master Mix in black 96 well plate at 37° C. for 5 minutes. The Reaction Master Mix contained 110 μl of 5 U/mL porcine kidney DAO (Sigma-Aldrich, USA) solution (dissolved with 0.2 M Tris-HCl buffer, pH 8.3), 1.1 mL of 15 U/mL peroxidase solution (dissolved with 0.2 M Tris-HCl buffer, pH 8.3), 1.1 mL of 20 mM HPPA solution (dissolved with 0.2 M Tris-HCl buffer, pH 8.3), and 22 ml of 2 M Tris-HCl buffer (pH 8.3) for 110 reaction assays.
# Fluorescence intensity (Fs) was measured at 405 nm by irradiation excitation at 320 nm. The higher the DAO enzymatic activity was, the higher the fluorescence intensity. The fluorometric inhibition indicator (Fi) was obtained from the following equation: Fi=(Fs-FDrug)/(FDMSO), where the fluorescent drug blank (FDrug) was measured in the drug mixture solution (using 0.2 M Tris HCl buffer, pH 8.3, without D-alanine). A DMSO blank (FDMSO) was measured under a 100% DMSO solution.
# Although FAD is generally included in the reaction mixture in the D-amino acid oxidase assay since it easily dissociates from the holoenzyme, the present method was performed without FAD. The inhibitory effect of DAO inhibitors was compared by using inhibitory concentrations leading to 50% inhibition of DAAO activity (IC50). The IC50 values were calculated by nonlinear regression model using GraphPad Prism, version 5(GraphPad Software, Inc., La Jolla, Calif.).
# [1] = target: T2, DAO in SK-N-SH neuroblastoma cells (Homo sapiens, UniProt P14920); test: Cell-based DAO assay in SK-N-SH cells; parameters: key to Relative DAO activity normalize to DMSO at Final Conc. 100 uM / Relative DAO activity normalize to DMSO at Final Conc. 10 uM: fraction of DMSO-control DAO activity (1 = DMSO); details: SK-N-SH 1.25*10^5 cells/well, drug treated for 3.5 hr; for IC50: 50 mM D-serine
# T2 construct: endogenous in cells; host or cells: SK-N-SH neuroblastoma cells (ATCC)
# T2 sequence (P14920 whole entry): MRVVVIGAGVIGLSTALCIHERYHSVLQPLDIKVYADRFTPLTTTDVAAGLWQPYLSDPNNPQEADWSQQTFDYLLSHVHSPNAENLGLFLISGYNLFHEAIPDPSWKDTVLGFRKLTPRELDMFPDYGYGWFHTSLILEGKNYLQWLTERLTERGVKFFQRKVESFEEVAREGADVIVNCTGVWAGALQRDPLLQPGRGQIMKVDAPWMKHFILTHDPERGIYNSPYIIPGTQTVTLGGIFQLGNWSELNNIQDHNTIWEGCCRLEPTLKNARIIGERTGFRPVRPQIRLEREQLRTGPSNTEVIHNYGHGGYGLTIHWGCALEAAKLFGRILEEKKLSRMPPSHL
# Protocol: The SK-N-SH neuroblastoma cell line was purchased from American Type Culture Collection (ATCC). It was cultured in MEM media (Invitrogen/GIBCO, Rockville, Md.) supplemented with 10% fetal bovine serum, 1×NEAA (Invitrogen/GIBCO) at 37° C. with 5% CO2 in a humidified atmosphere. Cells were trypsinized and plated into a black 96-well plate (NUNC No. 237108) at a density of 125,000 cells/well in 50 μl before cell-based DAO assay.
# The cellular DAO activity assay was using a method modified according to the report of Brandish et al. (Brandish, P. E., et al., A cell-based ultra-high-throughput screening assay for identifying inhibitors of D-amino acid oxidase. J Biomol Screen, 2006. 11(5): p. 481-7). SK-N-SH cells were suspended in assay buffers of HANKS buffer solution (Invitrogen/GIBCO No. 14025-092) with 20 mM HEPES. D-serine of (final concentration 50 mM) was added in each well as the substrate for DAO enzyme. The Amplex Red Hydrogen Peroxide/Proxidase Assay Kit (Molecular Probes/Invitrogen, cat. A22188) was used to measure H2O2 production which diffused across the cell membrane into the assay medium after DAO reaction. After seeding cells into black 96-well plate (Nunc No. 237108, Denmark), 50 μl of SK-N-SH cells (125,000 cells/well) was mixed with 50 μl drug solution (2.5 fold of interesting final concentration) and incubate at 37° C. with 5% CO2 in a humidified atmosphere for 30 minutes. After 30 minutes later, 25 μl of a 5 fold mixture containing D-serine, horseradish peroxidase (HRP), and Amplex Red was added into wells containing 100 μl of cell-drugs mixture and incubated at 37° C. with 5% CO2 in a humidified atmosphere for 3 hours. The final concentration of DMSO is below 1%. The fluorescence signal was then detected in SpectraMax M2e microplate reader (Molecular Devices, USA) with excitation at 544 nm and emission at 590 nm. The optimized assay buffer contained a final concentration of 50 mM D-serine, 0.625 units HRP, and 50 μM Amplex Red in a 125 μl assay volume.
# T1 sequence (P00371 whole entry): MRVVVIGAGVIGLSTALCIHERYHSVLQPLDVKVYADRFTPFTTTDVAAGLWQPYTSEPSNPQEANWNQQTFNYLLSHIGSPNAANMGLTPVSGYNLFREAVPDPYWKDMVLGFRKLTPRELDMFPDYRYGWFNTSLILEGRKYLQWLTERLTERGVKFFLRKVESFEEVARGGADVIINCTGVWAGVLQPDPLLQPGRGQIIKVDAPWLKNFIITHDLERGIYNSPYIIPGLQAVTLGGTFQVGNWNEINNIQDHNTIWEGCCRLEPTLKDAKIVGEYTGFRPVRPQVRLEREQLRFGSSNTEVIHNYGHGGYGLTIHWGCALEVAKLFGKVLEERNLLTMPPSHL
SMILES,IC50 (porcine kidney DAO) [µM],Relative DAO activity normalize to DMSO at Final Conc. 10 uM [1],Relative DAO activity normalize to DMSO at Final Conc. 100 uM [1],IC50 [1] [µM]
"COC(=O)c1ccc2c(c1)N=C(NCc1ncc(C)c(OC)c1C)N(CCC1=CCCCC1)C2 [compound 21106, Methyl 3-(2-(cyclohex-1-en-1-yl)ethyl)-2-(((4-methoxy-3,5-dimethylpyridin-2-yl)methyl)amino)-3,4-dihydroquinazoline-7-carboxylate]",488,1.02,0.77,478
"COc1ccc(C(=O)Oc2ccc3[nH]c([S+]([O-])Cc4ncc(C)c(OC)c4C)nc3c2)cc1 (stereo not drawn) [compound 11020, 2-(((4-methoxy-3,5-dimethylpyridin-2-yl)methyl)sulfinyl)-1H-benzo[d]imidazol-5-yl 4-methoxybenzoate]",10.4,0.97,0.67,221
"COc1c(C)cnc(C[S+]([O-])c2nc3cc(OC(=O)OC(C)(C)C)ccc3[nH]2)c1C (stereo not drawn) [compound 21132, tert-butyl (2-(((4-methoxy-3,5-dimethylpyridin-2-yl)methyl)sulfinyl)-1H-benzo[d]imidazol-5-yl)carbonate]",64.2,0.94,0.61,175
"COc1c(C)cnc(C[S+]([O-])c2nc3cc(OC(=O)Cc4ccccc4)ccc3[nH]2)c1C (stereo not drawn) [compound 28094, 2-(((4-methoxy-3,5-dimethylpyridin-2-yl)methyl)sulfinyl)-1H-benzo[d]imidazol-5-yl 2-phenylacetate]",21.1,1.10,0.58,121
"C/C=C\C(=O)Oc1ccc2[nH]c([S+]([O-])Cc3ncc(C)c(OC)c3C)nc2c1 (stereo not drawn) [compound 12124, 2-(((4-methoxy-3,5-dimethylpyridin-2-yl)methyl)sulfinyl)-1H-benzo[d]imidazol-5-yl (Z)-but-2-enoate]",11.2,0.97,0.36,108
"COc1c(C)cnc(C[S+]([O-])c2nc3cc(OC(=O)c4ccco4)ccc3[nH]2)c1C (stereo not drawn) [compound 12122, 2-(((4-methoxy-3,5-dimethylpyridin-2-yl)methyl)sulfinyl)-1H-benzo[d]imidazol-5-yl furan-2-carboxylate]",12.5,0.98,0.57,147
"COc1c(C)cnc(CN(Cc2ncc(C)c(OC)c2C)c2nc3cc(C(=O)O)ccc3n2CCC2=CCCCC2)c1C [compound 21105, 2-(bis((4-methoxy-3,5-dimethylpyridin-2-yl)methyl)amino)-1-(2-(cyclohex-1-en-1-yl)ethyl)-1H-benzo[d]imidazole-5-carboxylic acid]",301,0.89,0.58,219
"CCCCC(=O)Oc1ccc2[nH]c([S+]([O-])Cc3ncc(C)c(OC)c3C)nc2c1 (stereo not drawn) [compound 25016, 2-(((4-methoxy-3,5-dimethylpyridin-2-yl)methyl)sulfinyl)-1H-benzo[d]imidazol-5-yl pentanoate]",13.4,1.00,0.62,188
"COc1c(C)cnc(C[S+]([O-])c2nc3cc(OC(=O)C=C(C)C)ccc3[nH]2)c1C (stereo not drawn) [compound 12125, 2-(((4-methoxy-3,5-dimethylpyridin-2-yl)methyl)sulfinyl)-1H-benzo[d]imidazol-5-yl 3-methylbut-2-enoate]",13.3,0.80,0.50,122
